# Source: patent US12491233B2, “Pharmaceutical composition, for preventing or treating Charcot-Marie-Tooth disorder, comprising mesenchymal stem cells or insulin secreted by mesenchymal stem cells” (SAMSUNG LIFE PUBLIC WELFARE FOUNDATION, priority 2020, dated 2025)
# Tests used:
# MPZ [1] = experiment: MPZ in sciatic nerve tissue by confocal microscope; type: in vivo, mice; conditions: 12 U/kg intravenously, after two weeks, WT = 1, sham 0.20
# Text: 5-Week-old Charcot-Marie-Tooth disease mice were intravenously administered with 12 U/kg insulin, and after two weeks, the sciatic nerve tissue was collected and observed through a confocal microscope in Example 7, and the results are shown in FIG. 8D and Table 14.
# Schwann cells [2] = experiment: ATP measurement, CellTiter-Glo Luminescent Cell Viability Assay; type: cell-based; conditions: relative to 0 nM = 1
# Method: (§1) The cultured Schwann cells were treated with insulin at 0, 1, 10, 50, 100, 200, 500, or 1000 nM, and then the degree of cell proliferation was determined by measurement of the absorbance at 450 nm using a spectrophotometer by using the CCK-8 (Dojindo) test method. ATP was measured using the CellTiter-Glo Luminescent Cell Viability Assay (Promega Corporation), and finally, 5-bromo-2′-deoxyuridine (BrdU) bound during DNA synthesis in cells was identified. In this test method, analysis was performed using Cell Proliferation ELISA, BrdU (colorimetric) (Roche). BrdU was added to the cells, followed by incubation for 24 hours, and then the cells were fixed, followed by DNA denaturation, and then treated with Anti-BrdU antibody. The cells were incubated with TMB substrate by using HRP-linked secondary antibody, and the absorbance at 370 nm was measured in a spectrophotometer.
# [3] = system: Charcot-Marie-Tooth disease mice; experiment: Grip strength testing in Charcot-Marie-Tooth disease mice; type: in vivo; conditions: 5-week-old CMT mice, 12 U/kg intravenously, after two weeks; WT 8.9, sham 6.2
# Text: 5-Week-old Charcot-Marie-Tooth disease mice were intravenously administered with 12 U/kg insulin and, after two weeks, examined for behavioral performance increase through grip strength testing as in Example 5.
# Dystrophin = experiment: Myogenesis of gastrocnemius muscle tissue, dystrophin fluorescent antibody; type: in vivo, mice
# Method: 5-Week-old Charcot-Marie-Tooth disease mice were intravenously administered with 12 U/kg insulin, and after two weeks, the gastrocnemius muscle tissue was collected. Then, the increase in myogenesis was measured using the dystrophin antibody by the same method as in protein expression analysis using a fluorescent antibody in Example 7, and the results are shown in FIGS. 9A and 9B and Table 16.
# ERK and Akt pathways = experiment: Western blot of P-ERK1/2, ERK1/2, P-AKT, AKT in insulin-treated Schwann cells; type: cell-based; conditions: 100 nM insulin, 24 hours
# Method: After the cultured Schwann cells were treated with 100 nM insulin protein, the cells were harvested after 24 hours, and then the pellets were added in RIPA buffer, and the cells were disrupted using a sonicator and then centrifuged at 13,000 rpm at 4° C. for 15 minutes. Only the supernatant was subjected to protein quantification, and then 30 μg of proteins was loaded onto SDS-PAGE gel. Thereafter, the gel loaded on PVDF was transferred and then blocked with 5% skim milk for 1 hour, and then P-ERK1/2, ERK1/2, P-AKT, AKT, and β-actin antibodies were attached thereto at 4° C. for 24 hours. After the HRP-linked secondary antibody reaction and the washing process were performed, the bands of proteins were checked by using ECL solution.
# Schwann cells [4] = experiment: BrdU Cell Proliferation ELISA (colorimetric); type: cell-based; conditions: relative to 0 nM = 1
# Method: as §1
# [5] = system: Charcot-Marie-Tooth disease mice; experiment: Myelination of sciatic nerve tissue by transmission electron microscope; type: in vivo
# Text: 5-Week-old Charcot-Marie-Tooth disease mice were intravenously administered with 12 U/kg insulin, and after two weeks, the sciatic nerve tissue was collected and observed by the same method as in the histological analysis through a transmission electron microscope in Example 7, and the results are shown in FIGS. 8A to 8C and Tables 12 and 13.
# MPZ [6] = experiment: MPZ expression level in sciatic nerve tissue by western blotting; type: in vivo, mice; conditions: 12 U/kg intravenously, after two weeks, WT = 100, sham 3.84
# Method: 5-Week-old Charcot-Marie-Tooth disease mice were intravenously administered with 12 U/kg insulin, and after two weeks, the sciatic nerve tissue was collected and then the MPZ expression level was determined using MPZ antibody by the same method as in protein expression analysis through western blotting in Example 3, and the results are shown in FIGS. 8F and 8G and Table 15.
# [7] = system: Charcot-Marie-Tooth disease mice; experiment: Rotarod testing in Charcot-Marie-Tooth disease mice; type: in vivo
# Text: 5-Week-old Charcot-Marie-Tooth disease mice were intravenously administered with 12 U/kg insulin and, after two weeks, examined for behavioral performance increase through rotarod testing as in Example 5.
# PMP22 = PMP22 gene expression in sciatic nerve tissue by qRT-PCR; type: in vivo, mice
# Method: In addition, it was examined using qRT-PCR analysis whether specific genes observable in each type of differentiated cells were expressed in differentiated adipocytes and chondrocytes. Non-differentiated cells and differentiated cells were harvested and the total RNA was extracted from the cell pellets using TRIZOL. The pellets were completely dissolved in 1 mL of TRIZOL, and then 0.2 mL of chloroform was added thereto, followed by shaking for 15 seconds and then standing at room temperature for 3 minutes. The resultant product was then separated into the bottom layer phenol-chloroform, the intermediate layer, and the upper layer colorless aqueous solution by centrifugation at 13,000 rpm and 4° C. for 15 minutes, and of these, only the upper layer colorless aqueous solution was separately collected and transferred into a new tube. After 0.5 mL of isopropyl alcohol was added to the tube and then vigorously mixed, the mixture was left at room temperature for 5 minutes. The resultant solution was again centrifuged at 13,000 rpm and 4° C. for 10 minutes, and the supernatant was discarded. Thereafter, 75% ethanol was added to pellets and again vigorously mixed, followed by centrifugation. The upper layer was discarded, and RNA pellets were dried for 5-10 minutes and dissolved in RNase-free water. […]
# Schwann cells [8] = experiment: CCK-8 cell proliferation of insulin-treated Schwann cells; type: cell-based; conditions: for CCK-8: relative to 0 nM = 1
# Method: as §1
# [9] = system: Charcot-Marie-Tooth disease mice; experiment: MRI of gastrocnemius muscle tissue, cross-sectional area and volume; type: in vivo; conditions: 12 U/kg intravenously, after two weeks; for CSA: MRI; for Volume: from cross-sectional area
# Method: 5-Week-old Charcot-Marie-Tooth disease mice were intravenously administered with 12 U/kg insulin and, after two weeks, the gastrocnemius muscle tissue was observed by the MRI system. In addition, the cross-sectional area of the muscle tissue was measured to obtain the volume of the muscle tissue, and the results are shown in FIG. 9E and Table 18.
substance,measurement,setting,value
insulin,MPZ,MPZ [1],0.69
same,ATP,Schwann cells [2]; insulin 1 nM,1.08
same,ATP,Schwann cells [2]; insulin 10 nM,1.13
same,ATP,Schwann cells [2]; insulin 50 nM,1.20
same,ATP,Schwann cells [2]; insulin 100 nM,1.23
same,ATP,Schwann cells [2]; insulin 200 nM,1.18
same,ATP,Schwann cells [2]; insulin 500 nM,1.22
same,ATP,Schwann cells [2]; insulin 1000 nM,1.06
same,Grip Strength,[3],7.7
same,Dystrophin,"Dystrophin; gastrocnemius muscle, 12 U/kg intravenously, after two weeks, WT = 1, sham 0.27",0.94
same,myogenesis,"Dystrophin; in words, FIGS. 9A to 9E",increased myogenesis
same,activation of proliferation potency of Schwann cells through ERK and Akt pathways,ERK and Akt pathways,activated the proliferation potency of Schwann cells through ERK and Akt pathways
same,BrdU,Schwann cells [4]; insulin 1 nM,1.13
same,BrdU,Schwann cells [4]; insulin 10 nM,1.32
same,BrdU,Schwann cells [4]; insulin 50 nM,1.39
same,BrdU,Schwann cells [4]; insulin 100 nM,1.51
same,BrdU,Schwann cells [4]; insulin 200 nM,1.50
same,BrdU,Schwann cells [4]; insulin 500 nM,1.36
same,BrdU,Schwann cells [4]; insulin 1000 nM,1.44
same,myelination,"[5]; in words, FIGS. 8A to 8G",increased myelination
same,myelination,"[5]; sciatic nerve, TEM, 12 U/kg intravenously, after two weeks, WT = 100, sham 13.59",82.99
same,Thickness,"[5]; thickness of myelination, sciatic nerve, TEM, 12 U/kg intravenously, after two weeks, WT 3.32, sham 0.67",2.53
same,MPZ,MPZ [6],44.12
same,Rotarod,"[7]; 5-week-old CMT mice, 12 U/kg intravenously, after two weeks, WT 112.3, sham 27.8",67.9
same,behavioral performance of the mice,"[7]; rotarod and grip strength, in words",increased the behavioral performance
same,PMP22 expression levels,PMP22; in words,reduced the PMP22 expression levels
same,PMP22,"PMP22; sciatic nerve, 12 U/kg intravenously, after two weeks, WT = 1, sham 1305.36",986.69
same,optimum concentration for increasing the proliferation capacity of Schwann cells,"Schwann cells [8]; from CCK-8, ATP and BrdU tests, 0-1000 nM",100 nM
same,CCK-8,Schwann cells [8]; insulin 1 nM,1.03
same,CCK-8,Schwann cells [8]; insulin 10 nM,1.09
same,CCK-8,Schwann cells [8]; insulin 50 nM,1.16
same,CCK-8,Schwann cells [8]; insulin 100 nM,1.18
same,CCK-8,Schwann cells [8]; insulin 200 nM,1.19
same,CCK-8,Schwann cells [8]; insulin 500 nM,1.21
same,CCK-8,Schwann cells [8]; insulin 1000 nM,1.21
same,CSA,"[9]; Left gastrocnemius muscle, sham 0.302",0.343
same,Volume,"[9]; Left gastrocnemius muscle, sham 2.533",2.879
same,CSA,"[9]; Right gastrocnemius muscle, sham 0.290",0.323
same,Volume,"[9]; Right gastrocnemius muscle, sham 2.438",2.712
